Experimental findings from US20260108480A1, “METHODS FOR INDUCING PROLIFERATION OF STEM CELLS” (UNIVERSITY OF PITTSBURGH-OF THE COMMONWEALTH SYSTEM OF …, priority 2022, published 2026) are described below.

Data set [1] relates to primary PRX1 expressing SSCs isolated from the calvarial sutures of PRX1-creER-EGFP mice. Description: MTT proliferation assay of primary PRX1 expressing cells isolated from calvarial sutures. It is filed as cell-based, mouse. The following applies: for ability to induce proliferation of primary PRX1 expressing SSCs (screen of 5 WNT inhibitors): most effective concentrations of previous studies, FIGS. 22A-22B. From the text: (§1) FIGS. 22A-22H. […] (22A-22B) MTT proliferation assays of primary PRX1 expressing cells isolated from the calvarial sutures of PRX1-creER-EGFP+/+ mice. […] (22C) MTT proliferation assays of immortalized PRX1 expressing cells isolated from the calvarial sutures of PRX1-creER-EGFP+/+ mice. […] (22D-22F) Quantitative RT-PCR of osteoblast differentiation genes of immortalized PRX1 expressing cells isolated from the calvarial sutures of PRX1-creER-EGFP+/+ mice. […] (22G-22H) FAC-sorting analysis of tissue-cultured sutures isolated from of PRX1-creER-EGFP+/+ mice. Suture were explanted and cultured ex vivo.
(§2) WNT inhibitor candidates were identified by looking into cancer studies, as thousands of small molecules have been screened for their potential to inhibit WNT signaling in WNT-activated cancer cells (30). Several molecules have shown inhibition of canonical WNT activity in vitro but only few have been tested in vivo, in mice. Among those tested in vivo, 5 were selected because of their proven efficacy and safety: G007-LK (31), Pyrvinium (25,26), Quercetin (32,33), XAV939 (27), and Niclosamide (34). Actually, Niclosamide and Pyrvinium are anti-helminthic FDA-approved drugs (35,36) and Quercetin is a flavonol found in many fruits and vegetables that is used as an ingredient in supplements, beverages, or foods (33). […] Previous studies indicate that Niclosamide, besides inhibiting the WNT pathway, presents with various additional effects such as uncoupling oxidative phosphorylation and disrupting several different signaling pathways, including the NOTCH, mTORCT, NFkB, and STAT3 pathways (38-44).
In general terms: Tetrazolium dyes change colour on reduction, which living cells bring about.

Data set [2] concerns critical size calvarial bone defect. The data set is described as follows: Local delivery absorbed into a collagen sponge into critical size calvarial bone defect, μCT. Format: in vivo, mouse. The following applies: collagen sponge carrying 5 μg or 50 μg.
Procedure: To test whether Niclosamide can induce bone regeneration when delivered by means of a collagen sponge instead of a methylcellulose gel, a critical size calvarial bone defect was created (2 mm in diameter) in the right parietal bone of skeletally mature C57Bl/6 female mice (8 week old mice). Immediately after creation of the defect, 5 μL of a 1 pg/pl solution of Niclosamide (dissolved in DMSO) or 5 μl of a 10 μg/μl solution of Niclosamide (dissolved in DMSO) were absorbed into a 1 mm×1 mm×1 mm collagen sponge. Then, the sponge carrying either 5 μg or 50 μg of Niclosamide was implanted into the calvarial bone defects (n=3). Bone defects of the control groups received collagen sponges absorbed with equal volumes (5 μl) of DMSO only Bone regeneration was assessed by means of μCT, 8 weeks after surgery (FIGS. 27A-27C) 3D rendering, (FIG. 27D) quantitative assessment of the regenerated Bone Volume (BV) within the Total Volume (TV) of the calvarial bone defects).
The test system of data set [3] is immortalized PRX1 expressing cells isolated from the calvarial sutures of PRX1-creER-EGFP+/+ mice. The data set is described as follows: MTT proliferation assay of immortalized PRX1 expressing cells. It is filed as cell-based, mouse. The note with it: after 48 hours (FIG. 22C).
Excerpt: as §1
WNT inhibitor candidates were identified by looking into cancer studies, as thousands of small molecules have been screened for their potential to inhibit WNT signaling in WNT-activated cancer cells (30). Several molecules have shown inhibition of canonical WNT activity in vitro but only few have been tested in vivo, in mice. Among those tested in vivo, 5 were selected because of their proven efficacy and safety: G007-LK (31), Pyrvinium (25,26), Quercetin (32,33), XAV939 (27), and Niclosamide (34). Actually, Niclosamide and Pyrvinium are anti-helminthic FDA-approved drugs (35,36) and Quercetin is a flavonol found in many fruits and vegetables that is used as an ingredient in supplements, beverages, or foods (33). […]

The subject of data set [4] is critical size calvarial bone defect. Description: Local delivery in carboxymethylcellulose gel into critical size calvarial bone defect, μCT. The following applies: 2 mm defect, 8 week old C57Bl/6 female mice, 10 μL 12% carboxymethylcellulose gel containing 100 μg niclosamide, 4 weeks after surgery, n=3. It is filed as in vivo, mouse.
Procedure: Immediately after creation of the defect, 10 μL of a 12% carboxymethylcellulose gel (CONTROL) (24A) or 10 μL of a 12% carboxymethylcellulose gel containing 100 μg of niclosamide (TEST) (24B) were implanted within the bone defect. […] Student's t-test was used for statistical evaluation (n=3, ** indicates p<0.01). […] Immediately after creation of the defect, 10 μL of a 12% carboxymethylcellulose gel (CONTROL) or 10 μL of a 12% carboxymethylcellulose gel containing 100 g of niclosamide (TEST) were implanted within the bone defect (FIGS. 24A-24B). Bone regeneration was assessed by means of μCT, 4 weeks after surgery (FIG. 25). Student's t-test was used for statistical evaluation (n=3, ** indicates p<0.01).
For the next data set, the system named is PRX1 expressing SSCs. The data set is described as follows: In vivo flow cytometry quantification of PRX1 expressing SSCs after IP treatment. The following applies: 8-week old mice, 20 mg/Kg IP, 5 days/week. More on the design: species or system mouse. The protocol: (§3) FIGS. 23A-23D. […] (23A-23C) Flow cytometry was utilized to quantify the number of PRX1 expressing SSCs after treatment with Niclosamide (20 mg/kg of body weight, IP, 5 days/week, for 3 consecutive weeks) or with vehicle (control) in calvarial sutures (23A), in the periosteum of long bones (23B), and in the periodontal ligament of posterior molar teeth (23C). 4 mice/treatment (2 males and 2 females). (23D) Micro-computed tomography was utilized to measure bone mass (BV/TV) in the femurs of male and female mice after treatment with Niclosamide (20 mg/kg of body weight, IP, 5 days/week for 3 consecutive weeks) or with vehicle (control) (n=2). […] To do so, skeletally mature 8-week old mice were treated with intraperitoneal (IP) injections of Niclosamide (20 mg/Kg of body weight) or vehicle (control) 5 days/week, for 3 weeks (FIGS. 23A-23D).
For orientation: Flow cytometry measures light scatter and fluorescence of single cells or particles in a stream.

A short description of data set [5]: Micro-computed tomography of femur bone mass (BV/TV) after IP treatment. It is filed as in vivo, mouse. The following applies: male and female mice, 20 mg/Kg IP, 5 days/week, 3 weeks (FIG. 23D). On the procedure: as §3
For data set [6], the system named is osteoblast differentiation genes (RUNX2, SP7, Osteocalcin) in immortalized PRX1 expressing cells. Description: Quantitative RT-PCR of osteoblast differentiation genes in immortalized PRX1 expressing cells. Format: cell-based, mouse.
Excerpt: as §1, §2

In data set [7] the test system is GFP+ (PRX1 expressing) and GFP- cells of explanted calvarial sutures of PRX1-creER-EGFP+/+ mice. The data set is described as follows: FAC-sorting analysis of tissue-cultured explanted sutures (ex vivo). Format: cell-based, mouse.
Excerpt: as §1
However, no increase of GFP-cells (22H) is detected. All above studies (22A-22E) were repeated 2 or 3 times, with consistent results.
WNT inhibitor candidates were identified by looking into cancer studies, as thousands of small molecules have been screened for their potential to inhibit WNT signaling in WNT-activated cancer cells (30). Several molecules have shown inhibition of canonical WNT activity in vitro but only few have been tested in vivo, in mice. Among those tested in vivo, 5 were selected because of their proven efficacy and safety: G007-LK (31), Pyrvinium (25,26), Quercetin (32,33), XAV939 (27), and Niclosamide (34). […]

Data set [8] deals with periodontal ligament stem cells expressing Prx1 from mouse incisors. The data set is described as follows: Flow cytometry quantification of Prx1 (GFP) expressing periodontal ligament cells in vitro. It is filed as cell-based. The note with it: 48 hours.
Excerpt: To perform these studies, transgenic mice was utilized expressing green fluorescent protein (GFP) under the Prx1 promoter. Thus, using these transgenic mice, quantification of GFP expressing cells by means of flow cytometry can be utilized to quantify Prx1 expressing cells.

“Also recorded” adds a separate entry of the source.

In the case of `O=c1c(O)c(-c2ccc(O)c(O)c2)oc2cc(O)cc(O)c12` [Quercetin], the “ability to induce proliferation of primary PRX1 expressing SSCs (screen of 5 WNT inhibitors)” value (shortened to “ability … (screen of 5 WNT inhibitors)”) in data set [1] is “able to consistently induce proliferation”.

In the case of `O=C(Nc1ccc([N+](=O)[O-])cc1Cl)c1cc(Cl)ccc1O` [Niclosamide], the “regenerated Bone Volume (BV) within Total Volume (TV) of the defect by μCT” value in data set [2] (2 mm defect, 8 week old C57Bl/6 female mice, 8 weeks after surgery, n=3, not statistically significant) is recorded as “trend of increasing of the regenerated bone mass”. Besides, the “adverse events / general health” value in [2] (8 weeks) is “no adverse events were recorded”. The “proliferation (MTT) of immortalized PRX1 expressing cells” value in [3] is listed as “could induce proliferation; also recorded: statistically significant proliferation”. For the same compound, the “bone regeneration by μCT” value in [4] is listed as “substantial amount of bone regeneration”. In addition, the “proliferation of PRX1 expressing SSCs in the calvarial sutures” value in the data set on PRX1 expressing SSCs (3 weeks (FIG. 23A)) was “induces proliferation”. Besides, the “proliferation of PRX1 expressing SSCs in the periosteum of long bones” value in the data set on PRX1 expressing SSCs (3 weeks (FIG. 23B)) is listed as “induces proliferation”. The “proliferation of PRX1 expressing SSCs in the periodontal ligament of the mouse molars” value in the data set on PRX1 expressing SSCs (3 weeks (FIG. 23C)) is on record as “induces proliferation”. Also, the “bone mass (BV/TV) of femurs” value in data set [5] is on record as “does not significantly reduce the bone mass”. Further, the “proliferation (MTT) of primary PRX1 expressing cells” value in data set [1] (after 24 hours (FIG. 22A)) and in [1] (after 48 hours (FIG. 22B)) was “statistically significant proliferation” each time. Besides, in data set [1] (comparison with Pyrvinium and Quercetin), the “effect on proliferation compared with the other screened molecules” value was “most significant and prolonged effect”. Further, in [1], the “ability … (screen of 5 WNT inhibitors)” value is recorded as “able to consistently induce proliferation”. The “osteoblastic differentiation of PRX1 expressing SSCs (qRT-PCR)” value in [6] (FIGS. 22D-22F) is listed as “inhibits their osteoblastic differentiation”. Further, the “expression of RUNX2 (qRT-PCR)” value in data set [6] (immortalized PRX1 expressing cells, after 48 hours (FIG. 22D)) is given as “statistically significant downregulation”. Further, in data set [6] (immortalized PRX1 expressing cells, after 48 hours (FIG. 22E)), the “expression of SP7 (qRT-PCR)” value was “statistically significant downregulation”. In [6] (immortalized PRX1 expressing cells, after 48 hours (FIG. 22F)), the “expression of Osteocalcin (OCN) (qRT-PCR)” value is listed as “statistically significant downregulation”. Besides, the “GFP+ cells (PRX1 expressing cells) in explanted sutures” value in data set [7] (2 weeks of incubation (FIG. 22G)) is on record as “proliferation of the PRX1 expressing SSCs was observed; also recorded: statistically significant increase”. For the same compound, the “GFP- cells (other cells of the sutures) in explanted sutures” value in data set [7] (2 weeks of incubation (FIG. 22H)) was “could not be detected; also recorded: no increase”. Also, the “number of Prx1 expressing (GFP) cells” value in [8] (0.2 μM and 2 μM, more significant increases with higher doses) is given as “increase in number”. Also, in [8] (2 μM, flow cytometry (FIG. 26E)), the “increase of number of Prx1 expressing (GFP) cells” value is reported as ~3.5 folds.

`Cc1cc(/C=C/c2ccc3cc(N(C)C)ccc3[n+]2C)c(C)n1-c1ccccc1` [Pyrvinium]: the “proliferation (MTT) of primary PRX1 expressing cells” value in [1] (after 24 hours (FIG. 22A)) and in data set [1] (after 48 hours (FIG. 22B)) was “statistically significant proliferation” each time. Moreover, the “ability … (screen of 5 WNT inhibitors)” value in [1] was “able to consistently induce proliferation”.
